Patent publication US4578489A (priority 1982, dated 1986)
Read-outs that look alike come from different tables or passages of the source.

Legend:
Type in all cases: cell-based
Aspergillus phoenicis = assay: Minimum inhibitory concentration against fungi, agar incorporation test, strain L; conditions: malt extract/agar
Experimental: (§1) The invention is carried out using the known agar incorporation test in the following fungi:
(L) Aspergillus phoenicis
(§2) in a malt extract/agar (Merck). Inhibition is effected by adding sufficient of each of the various compounds to give final concentrations in the agar of 2, 5, 10, 50 and 100 mg/liter. The concentrations (mg/liters) required to inhibit the growth of the fungi (starting from traces of fungi added dropwise) are illustrated in Table 3.

Penicillium funiculosum = assay: Minimum inhibitory concentration against fungi, agar incorporation test, strain M; conditions: malt extract/agar
Experimental: as §1
(M) Penicillium funiculosum
as §2

[1] = test system: Cladosporium cladosporioides; assay: Minimum inhibitory concentration against fungi, agar incorporation test, strain O; conditions: malt extract/agar
Experimental: as §1
(O) Cladosporium cladosporioides
as §2

Chaetomium globosum = assay: Minimum inhibitory concentration against fungi, agar incorporation test, strain S; conditions: malt extract/agar
Experimental: as §1, §2

Aureobasidium pullulans = assay: Minimum inhibitory concentration against fungi, agar incorporation test, strain R; conditions: malt extract/agar
Experimental: as §1
(R) Aureobasidium pullulans
as §2

Endomyces geotrichum = assay: Minimum inhibitory concentration against fungi, agar incorporation test, strain Q; conditions: malt extract/agar
Experimental: as §1, §2

Aspergillus niger = assay: Minimum inhibitory concentration against fungi, agar incorporation test, strain K; conditions: malt extract/agar
Experimental: as §1, §2

Chlorella vulgaris = assay: Action against algae: Chlorella vulgaris; design: key: --: no growth on the agar, 3 ppm have destroyed the algae in 6 hours; conditions: 3 mg/liter; for Growth on the agar (algae-destroying action): 6 hours exposure, 14 days incubation; for Growth in the medium (growth inhibition): 14 days
Experimental: Cultures of Chlorella vulgaris which had been grown for 14 days in algae nutrient media are diluted in the ratio 1/200 in the algae nutrient medium. Each of the compounds listed in Table 1 is then added in such an amount as to give a final concentration of 3 mg/liter. After incubating for 6 hours, 10 μl of each culture are withdrawn and added dropwise to algae/agar in order to determine the destructive action. After the cultures have incubated for 14 days under illumination (14 hours of light and 10 hours of darkness, alternately), the growth in the algae medium (determination of growth inhibition) and on the algae/agar (determination of algae-destroying action) is assessed visually.

Alternaria alternata = assay: Minimum inhibitory concentration against fungi, agar incorporation test, strain N; conditions: malt extract/agar
Experimental: as §1, §2

Candida albicans = assay: Minimum inhibitory concentration against fungi, agar incorporation test, strain P; conditions: malt extract/agar
Experimental: as §1, §2

[2] = test system: mixed culture of bacteria; design: key: +: growth, no destruction; (+): growth less than that of control (>10 colonies), slight destruction; (-): slight growth (1-10 colonies); -: no growth, destruction
[3] = 5 mg/l, culture diluted 1/1000 in Tyrode
[4] = 5 mg/l, culture diluted 1/10000 in Tyrode
[5] = 10 mg/l, culture diluted 1/1000 in Tyrode
[6] = 10 mg/l, culture diluted 1/10000 in Tyrode
[7] = 30 mg/l, culture diluted 1/1000 in Tyrode
[8] = 30 mg/l, culture diluted 1/10000 in Tyrode
[9] = 60 mg/l, culture diluted 1/1000 in Tyrode
[10] = 60 mg/l, culture diluted 1/10000 in Tyrode
[11] = 100 mg/l, culture diluted 1/1000 in Tyrode
[12] = 100 mg/l, culture diluted 1/10000 in Tyrode

Row | SMILES | MIC against fungi, strain L (Aspergillus phoenicis) | MIC against fungi, strain M (Penicillium funiculosum) | MIC against fungi, strain O [1] | MIC against fungi, strain S (Chaetomium globosum) | MIC against fungi, strain R (Aureobasidium pullulans) | MIC against fungi, strain Q (Endomyces geotrichum) | MIC against fungi, strain K (Aspergillus niger) | Growth on the agar (algae-destroying action) (Chlorella vulgaris) | Growth in the medium (growth inhibition) (Chlorella vulgaris) | MIC against fungi, strain N (Alternaria alternata) | MIC against fungi, strain P (Candida albicans) | Growth (destruction of a mixed culture of bacteria) [2, 3] | Growth (destruction of a mixed culture of bacteria) [2, 4] | Growth (destruction of a mixed culture of bacteria) [2, 5] | Growth (destruction of a mixed culture of bacteria) [2, 6] | Growth (destruction of a mixed culture of bacteria) [2, 7] | Growth (destruction of a mixed culture of bacteria) [2, 8] | Growth (destruction of a mixed culture of bacteria) [2, 9] | Growth (destruction of a mixed culture of bacteria) [2, 10] | Growth (destruction of a mixed culture of bacteria) [2, 11] | also measured
1 | CCCCCCCCCCCCCCCCCC[N+](C)(C)C.CCC[CH2][Sn-]([Cl])([Cl])([CH2]CCC)[CH2]CCC [Example 18, (CH3)3 NC18 H37 / Tributyldichloro] | 2 µg/mL | 5 µg/mL | 2 µg/mL | 2 µg/mL | 2 µg/mL | 10 µg/mL | 2 µg/mL | -- | -- | 2 µg/mL | 5 µg/mL | + | (+) (growth less than that of control (>10 colonies), slight destruction) | + | (-) (slight growth (1-10 colonies)) | (+) (growth less than that of control (>10 colonies), slight destruction) | - | (+) (growth less than that of control (>10 colonies), slight destruction) | - | (-) (slight growth (1-10 colonies)) | Growth (destruction of a mixed culture of bacteria) [2, 12]: -
2 | CCCCCCCCCCCCCCCC[N+](C)(C)C.CCC[CH2][Sn-]([Cl])([Cl])([CH2]CCC)[CH2]CCC [Example 17, (CH3)3 NC16 H33 / Tributyldichloro] | 2 µg/mL | 5 µg/mL | 2 µg/mL | 2 µg/mL | 2 µg/mL | 10 µg/mL | 2 µg/mL | -- | -- | 2 µg/mL | 5 µg/mL | + | (+) (growth less than that of control (>10 colonies), slight destruction) | + | (+) (growth less than that of control (>10 colonies), slight destruction) | (+) (growth less than that of control (>10 colonies), slight destruction) | - | - | - | - | Growth (destruction of a mixed culture of bacteria) [2, 12]: -
